Legend:
HEK293/Null = test: Antagonist screening on RIG-I−/MDA-5− control cell line stimulated with hIFNα; type: cell-based; settings: stimulated with recombinant hIFNα at 100 IU/mL
Experimental: RIG-I and MDA-5 stimulation were tested by assessing IRF3 activation in HEK293 cells expressing human RIG-I or MDA-5 genes. The activity of the test articles was tested on human RIG-I and MDA-5 expressing cells as a potential agonist or antagonist. The test articles were evaluated at one concentration and compared to control ligands. This step was performed in triplicate. The results are provided as Relative Luminescence Units (RLUs).
RIG-I^−/MDA-5^− Cell Lines: HEK293/Null: Control for human RIG-I and MDA-5 Poly(I:C)HMW/LyoVec at 1 μg/mL. Antagonist: 500 ng/mL 5′ppp-dsRNA/LyoVec at 1 μg/mL. Antagonist: 500 ng/mL hIFNα at 1000 IU/mL. Antagonist: 100 IU/mL.
In a 96-well plate (200 μL total volume) containing the appropriate cells (25,000-50,000 cells/well), 20 μL of the test article or of the positive control ligand was added to the wells. For the antagonist assay, the test article was incubated with the cells, at 37° C. with 5% CO2, for 30 minutes prior to the addition of the positive control ligand to the wells. After 20 hour incubation, activation of the IRF pathway was monitored using a luciferase detection assay. Luciferase activity was assayed in triplicate from the supernatant of the induced cells, and the relative luminescence units (RLUs) are detected by a Promega GloMax Luminometer.

[1] = tested on: spinal astrocytes (GFAP) in the dorsal horn of the spinal cord; test: Spinal astrocyte activation (GFAP immunofluorescence) after intrauterine LPS; type: in vivo, mouse (Balb/C); settings: intrauterine, mixed with LPS 100 μg/kg on first day of estrus and alone the subsequent day, 3 estrous cycles; amitriptyline 28 μg/kg, TAK-242 36 μg/kg; vs LPS
Experimental: Group 1 included twelve mice with 20 μl endotoxin-free saline introduced to the uterus on the first day of estrus and the subsequent day over 3 consecutive estrous cycles. Group 2 included twelve mice with LPS (100 μg/kg) instilled in the uterus on the first day of estrus and saline injected on the subsequent day over 3 consecutive estrous cycles. Group 3 included twelve mice with LPS (100 μg/kg) mixed with amitriptyline (20 μl of a 100 μM solution, equivalent to 28 μg/kg) instilled in the uterus on the first day of estrus, and amitriptyline alone instilled on the subsequent day over 3 consecutive estrous cycles. Group 4 included 14 mice with LPS (100 μg/kg) mixed with TAK-242 (20 μl of a 100 μM solution, equivalent to 36 μg/kg) instilled on the first day of estrus and TAK-242 alone instilled on the subsequent day over 3 consecutive estrous cycles.
The investigation involved the instillation of 20 ul of an endotoxin-free 0.9% saline solution into the uterus of all animals on the first day of estrus and the subsequent day during 3 consecutive estrous cycles. Additional agents added to the saline were included according to the groups outlined below. Where LPS is administered, this was done on only 1 day per estrous cycle.
Where amitriptyline or TAK-242 was administered, this is on both the first day of estrus and the subsequent day.
(§1) The spinal cord was assessed using immunohistochemistry techniques across levels T10, T11, T12, T13, L1, L2, L3, L4, L5, L6, S1 and S2 for Groups 1 and 2, where T represents the thoracic segment of the spinal cord, L represents the lumbar segment of the spinal cord and S represents the sacral segment of the spinal cord.
as §1, with “levels” for “levels T10, T11,”, “L6, S” for “L6, S1”, “Groups 3” for “Groups 1”, “and 4,” for “and 2,”, “cord. […]” for “cord.”

Structure (SMILES): CN(C)CCC=C1c2ccccc2CCc2ccccc21 [Amitriptyline]
- effect on RIG-I−/MDA-5− control cell line (HEK293/Null): inhibitory effect
- astrocytic reactivity (GFAP staining), impact of intrauterine LPS at multiple levels of the spinal cord [1]: reduced astrocytic reactivity to below basal levels

Source: patent US11400059B2, “Treatment of pain and/or pain related symptoms associated with dysmenorrhea” (ALYRA BIOTECH PTY LTD, priority 2017, dated 2022)
